Target: T1, human chemokine receptor 2 isoform B (Homo sapiens, UniProt P41597)
T1 construct: host or cells: CHOK1-CCR2B-A5 cells (CHO-K1)
T1 sequence (P41597 1-360 isoform P41597-2): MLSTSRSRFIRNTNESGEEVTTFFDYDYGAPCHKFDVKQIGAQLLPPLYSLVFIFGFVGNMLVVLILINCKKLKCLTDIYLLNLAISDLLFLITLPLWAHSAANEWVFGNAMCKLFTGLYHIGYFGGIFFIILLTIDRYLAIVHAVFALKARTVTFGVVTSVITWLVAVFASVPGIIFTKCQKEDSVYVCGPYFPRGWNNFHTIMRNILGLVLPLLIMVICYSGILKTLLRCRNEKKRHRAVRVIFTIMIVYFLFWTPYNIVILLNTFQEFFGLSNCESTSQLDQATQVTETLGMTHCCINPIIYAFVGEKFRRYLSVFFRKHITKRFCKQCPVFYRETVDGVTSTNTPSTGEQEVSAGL
Assay: Calcium mobilization assay (FLIPR, antagonist activity against MCP-1)
Assay type: cell-based
Conditions: Ca mobilisation assay, CHOK1-CCR2B-A5 cells, inhibition of calcium increase induced by 20 nM MCP-1
In short: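 CHOK1 cells stably overexpressing human CCR2B, loaded with 4 μM Fluo-4 for 2 h at 30° C, compounds added and agonist signal read by FLIPR for 80 s. After 20-30 min at 30° C, 20 nM MCP-1 was added and fluorescence read again. IC50 is 50% inhibition of specific calcium increase (max minus basal).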

Compound | IC50 [nM]
C[C@H]1C(=O)N([C@H](CO)CCC(=O)N2CCC3(CC3)[C@H](O)C2)CCN1C(=O)Nc1ccc(C(F)(F)F)c(Cl)c1 [Example 53, (S)-4-[(S)-4-((S)-4-Hydroxy-6-aza-spiro[2.5]oct-6-yl)-1-hydroxymethyl-4-oxo-butyl]-2-methyl-3-oxo-piperazine-1-carboxylic acid (3-chloro-4-trifluoromethyl-phenyl)-amide] | 4.3
COC(=O)[C@H](CCC(=O)N1CCC2(CC2)[C@H](O)C1)N1CCN(C(=O)Nc2ccc(OC(F)(F)F)c(Cl)c2)[C@@H](C)C1=O [Example 54, (S)-2-[(S)-4-(3-Chloro-4-trifluoromethoxy-phenylcarbamoyl)-3-methyl-2-oxo-piperazin-1-yl]-5-((S)-4-hydroxy-6-aza-spiro[2.5]oct-6-yl)-5-oxo-pentanoic acid methyl ester] | 216
C[C@H]1C(=O)N([C@H](CO)CCC(=O)N2CCC3(CC3)[C@H](O)C2)CCN1C(=O)Nc1ccc(OC(F)(F)F)c(Cl)c1 [Example 55, (S)-4-[(S)-4-((S)-4-Hydroxy-6-aza-spiro[2.5]oct-6-yl)-1-hydroxymethyl-4-oxo-butyl]-2-methyl-3-oxo-piperazine-1-carboxylic acid (3-chloro-4-trifluoromethoxy-phenyl)-amide] | 1.8
C[C@H]1C(=O)N([C@@H](CCC(=O)N2CCC3(CC3)[C@H](O)C2)C(=O)O)CCN1C(=O)Nc1ccc(OC(F)(F)F)c(Cl)c1 [Example 56, Lithium; (S)-2-[(S)-4-(3-chloro-4-trifluoromethoxy-phenylcarbamoyl)-3-methyl-2-oxo-piperazin-1-yl]-5-((S)-4-hydroxy-6-aza-spiro[2.5]oct-6-yl)-5-oxo-pentanoate] | 387
C[C@H]1C(=O)N([C@H](CO)CCC(=O)N2CCC3(CC3)[C@H](O)C2)CCN1C(=O)N(C)c1ccc(OC(F)(F)F)c(Cl)c1 [Example 57, (S)-4-[(S)-4-((S)-4-Hydroxy-6-aza-spiro[2.5]oct-6-yl)-1-hydroxymethyl-4-oxo-butyl]-2-methyl-3-oxo-piperazine-1-carboxylic acid (3-chloro-4-trifluoromethoxy-phenyl)-methyl-amide] | 2570
C[C@H]1C(=O)N(CCCC(=O)N2CCC3(CC3)[C@H](O)C2)CCN1c1ccc(Cl)c(Cl)c1 [Example 59, (S)-4-(3,4-dichloro-phenyl)-1-[4-((S)-4-hydroxy-6-aza-spiro[2.5]oct-6-yl)-4-oxo-butyl]-3-methyl-piperazin-2-one] | 23.2
C[C@H]1C(=O)N(CCCC(=O)N2CCC3(CC3)[C@H](O)C2)CCN1c1ccc(C(F)(F)F)c(Cl)c1 [Example 60, (S)-4-(3-chloro-4-trifluoromethyl-phenyl)-1-[4-((S)-4-hydroxy-6-aza-spiro[2.5]oct-6-yl)-4-oxo-butyl]-3-methyl-piperazin-2-one] | 5
C[C@H]1C(=O)N(CCCC(=O)N2CCC3(CC3)[C@H](O)C2)CCN1c1ccc(Cl)c(OC(F)(F)F)c1 [Example 62, (S)-4-(4-chloro-3-trifluoromethoxy-phenyl)-1-[4-((S)-4-hydroxy-6-aza-spiro[2.5]oct-6-yl)-4-oxo-butyl]-3-methyl-piperazin-2-one] | 41.7
C[C@H]1C(=O)N(CCC(=O)N2CCC3(CC3)[C@H](O)C2)CCN1C(=O)/C=C/c1ccc(F)c(Cl)c1 [Example 64, (S)-4-[(E)-3-(3-Chloro-4-fluoro-phenyl)-acryloyl]-1-[3-((S)-4-hydroxy-6-aza-spiro[2.5]oct-6-yl)-3-oxo-propyl]-3-methyl-piperazin-2-one] | 1240
C[C@@H]1CN(CCCC(=O)N2CCC3(CC3)[C@H](O)C2)C(=O)C=CN1c1ccc(C(F)(F)F)c(Cl)c1 [Example 65, (R)-1-(3-Chloro-4-trifluoromethyl-phenyl)-4-[4-((S)-4-hydroxy-6-aza-spiro[2.5]oct-6-yl)-4-oxo-butyl]-2-methyl-1,2,3,4-tetrahydro-[1,4]diazepin-5-one] | 610
C[C@@H]1CN(CCCC(=O)N2CCC3(CC3)[C@H](O)C2)C(=O)CCN1c1ccc(C(F)(F)F)c(Cl)c1 [Example 66, (R)-1-(3-Chloro-4-trifluoromethyl-phenyl)-4-[4-((S)-4-hydroxy-6-aza-spiro[2.5]oct-6-yl)-4-oxo-butyl]-2-methyl-[1,4]diazepan-5-one] | 109
O=C(/C=C/c1ccc(Cl)c(Cl)c1)N1CCC(=O)N(CCC(=O)N2CCC(CO)CC2)CC1 [Example 69, 1-[(E)-3-(3,4-Dichloro-phenyl)-acryloyl]-4-[3-(4-hydroxymethyl-piperidin-1-yl)-3-oxo-propyl]-[1,4]diazepan-5-one] | 481
O=C(/C=C/c1ccc(Cl)c(Cl)c1)N1CCC(=O)N(CCC(=O)N2CCC(O)(c3ccccc3)CC2)CC1 [Example 72, 1-[(E)-3-(3,4-Dichloro-phenyl)-acryloyl]-4-[3-(4-hydroxy-4-phenyl-piperidin-1-yl)-3-oxo-propyl)-[1,4]diazepan-5-one] | 162
CC1(O)CCN(C(=O)CCN2CCN(C(=O)/C=C/c3ccc(Cl)c(Cl)c3)CCC2=O)CC1 [Example 73, 1-[(E)-3-(3,4-Dichloro-phenyl)-acryloyl]-4-[3-(4-hydroxy-4-methyl-piperidin-1-yl)-3-oxo-propyl]-[1,4]diazepan-5-one] | 65.9
O=C(/C=C/c1ccc(Cl)c(Cl)c1)N1CCC(=O)N(CCC(=O)N2CCC(O)(c3ccccn3)CC2)CC1 [Example 76, 1-[(E)-3-(3,4-Dichloro-phenyl)-acryloyl]-4-[3-(4'-hydroxy-3′,4′,5′,6′-tetrahydro-2′H-[2,4′]bipyridinyl-1′-yl)-3-oxo-propyl]-[1,4]diazepan-5-one] | 971
O=C(/C=C/c1ccc(Cl)c(Cl)c1)N1CCC(=O)N(CCC(=O)N2CCC(O)(c3cccnc3)CC2)CC1 [Example 77, 1-[(E)-3-(3,4-Dichloro-phenyl)-acryloyl]-4-[3-(4′-hydroxy-3′,4′,5′,6′-tetrohydro-2′H-[3,4′]bipyridinyl-1′-yl)-3-oxo-propyl]-[1,4]diazepan-5-one] | 129
O=C(/C=C/c1ccc(Cl)c(Cl)c1)N1CCC(=O)N(CCC(=O)N2CCC(O)(c3ccncc3)CC2)CC1 [Example 78, 1-[(E)-3-(3,4-Dichloro-phenyl)-acryloyl]-4-[3-(4-hydroxy-3,4,5,6-tetrahydro-2H-[4,4′]bipyridinyl-1-yl)-3-oxo-propyl)-[1,4]diazepan-5-one] | 51.2
O=C1CCCN(C(=O)CCN2CCN(C(=O)/C=C/c3ccc(Cl)c(Cl)c3)CCC2=O)C1 [Example 79, 1-[(E)-3-(3,4-Dichloro-phenyl)-acryloyl]-4-[3-oxo-3-(3-oxo-piperidin-1-yl)-propyl]-[1,4]diazepan-5-one] | 1820
CN1CCN(C(=O)CCN2CCN(C(=O)/C=C/c3ccc(Cl)c(Cl)c3)CCC2=O)CC1=O [Example 80, 1-[(E)-3-(3,4-Dichloro-phenyl)-acryloyl]-4-[3-(4-methyl-3-oxo-piperazin-1-yl)-3-oxo-propyl]-[1,4]diazepan-5-one] | 3250
O=C(/C=C/c1ccc(Cl)c(Cl)c1)N1CCC(=O)N(CCC(=O)N2CCCCC2)CC1 [Example 82, 1-[(E)-3-(3,4-Dichloro-phenyl)-acryloyl]-4-(3-oxo-3-piperidin-l-yl-propyl)-[1,4]diazepan-5-one] | 1830
O=C(/C=C/c1ccc(Cl)c(Cl)c1)N1CCC(=O)N(CCC(=O)N2CCC3(CCCC3)CC2)CC1 [Example 83, 4-[3-(8-Aza-spiro[4.5]dec-8-yl)-3-oxo-propyl]-1-[(E)-3-(3,4-dichloro-phenyl)-acryloyl]-[1,4]diazepan-5-one] | 307

Source: US8445674B2, “Heterocyclyl compounds” (Hoffmann-La Roche Inc, priority 2009, dated 2013)
